# Where two headings read alike, the source gives them in different places.
# Key:
# [1] = system: Cercospora kikuchi; assay: Minimum inhibitory concentration, agar dilution; format: cell-based
# [2] = system: Fusarium roseum; assay: microbe, parasite or virus in culture; format: cell-based
# [3] = system: Glomerella glycine; assay: Minimum inhibitory concentration, agar dilution; format: cell-based
# [4] = system: Phytophthora capsici; assay: Minimum inhibitory concentration, agar dilution; format: cell-based
# [5] = system: Phytophthora parasitica; assay: Minimum inhibitory concentration, agar dilution; format: cell-based
# [6] = system: Pyricularia oryzae; assay: microbe, parasite or virus in culture; format: cell-based
# [7] = system: Rhizoctonia solani; assay: Minimum inhibitory concentration, agar dilution; format: cell-based
# [8] = system: Rhizopus sp.; assay: Minimum inhibitory concentration, agar dilution; format: cell-based
# [9] = system: Asperillus fumigatus ATCC 164264; assay: Minimum inhibitory concentration, agar dilution; format: cell-based
# [10] = system: Cladosporium carrionii ATCC 1624; assay: Minimum inhibitory concentration, agar dilution; format: cell-based
# [11] = system: Coccidioides immitis ATCC 34020; assay: microbe, parasite or virus in culture; format: cell-based
# [12] = system: Epidermopyton floccosum ATCC 38486; assay: Minimum inhibitory concentration, agar dilution; format: cell-based
# [13] = system: Microsporum canis ATCC 11622; assay: Minimum inhibitory concentration, agar dilution; format: cell-based
# [14] = system: Microsporum gypseum; assay: Minimum inhibitory concentration, agar dilution; format: cell-based
# [15] = system: Sporothrix schenkii ATCC 10212; assay: Minimum inhibitory concentration, agar dilution; format: cell-based
# [16] = system: Trichophyton mentagrophytes ATCC 9533; assay: Minimum inhibitory concentration, agar dilution; format: cell-based
# [17] = system: Trichophyton ruburum; assay: Minimum inhibitory concentration, agar dilution; format: cell-based
# [18] = system: mice; details: mouse, in vivo, ip; cited from earlier work
# [19] = system: Botrytis cinerea; assay: Minimum inhibitory concentration, agar dilution
# [20] = system: Fusarium oxysporum; assay: Minimum inhibitory concentration, agar dilution
# [21] = Cercospora kikuchi, read-out: MIC
# [22] = Glomerella glycine, read-out: MIC
# [23] = Phytophthora capsici, read-out: MIC
# [24] = Phytophthora nicotianae, Phytophthora parasitica, read-out: MIC
# [25] = Rhizoctonia solani, read-out: MIC
# [26] = Asperillus fumigatus ATCC 164264, read-out: MIC
# [27] = Cladophialophora carrionii, ATCC1624, Cladosporium carrionii ATCC 1624, read-out: MIC
# [28] = Epidermopyton floccosum ATCC 38486, read-out: MIC
# [29] = ATCC10212, Sporothrix schenkii ATCC 10212, read-out: MIC
# [30] = ATCC9533, Trichophyton mentagrophytes ATCC 9533, read-out: MIC
# [31] = Trichophyton ruburum, read-out: MIC
# [32] = ATCC11622, Microsporum canis ATCC 11622, read-out: MIC
# [33] = Nannizzia gypsea, Microsporum gypseum, read-out: MIC
SMILES,"MIC [1, 21] [µg/mL]",MIC ([2]; Fusarium sambucinum) [µg/mL],"MIC [3, 22] [µg/mL]","MIC [4, 23] [µg/mL]","MIC [5, 24] [µg/mL]",MIC [6] [µg/mL],"MIC [7, 25] [µg/mL]","MIC ([8]; Rhizopus sp., read-out: MIC) [µg/mL]","MIC [9, 26] [µg/mL]","MIC [10, 27] [µg/mL]",MIC ([11]; ATCC34020) [µg/mL],"MIC [12, 28] [µg/mL]","MIC ([13]; Microsporum canis, ATCC11622) [µg/mL]",MIC ([14]; Nannizzia gypsea) [µg/mL],"MIC [15, 29] [µg/mL]","MIC [16, 30] [µg/mL]","MIC [17, 31] [µg/mL]","MIC [13, 32] [µg/mL]","MIC [14, 33] [µg/mL]",MIC [3] [µg/mL],further results
COC1=CC(=O)C[C@@H](C)[C@]12Oc1c(Cl)c(OC)cc(OC)c1C2=O [griseofulvin],> 100,> 100,> 100,100,25,> 100,100,> 100,> 100,> 100,> 100,1.5,6,3,> 100,3,1.5,–,–,–,–
C[C@H]1O[C@H](O[C@H]2[C@H](O)[C@@H](O)[C@@H](O)[C@H](O)[C@@H]2O)[C@@H](N)C[C@@H]1NC(=N)C(=O)O [kasugamycin],> 100,> 100,> 100,> 100,> 100,25,> 100,> 100,> 100,> 100,> 100,> 100,–,–,> 100,> 100,> 100,> 100,> 100,–,–
NC(=O)OCC(O)C(O)C(N)C(=O)NC(C(=O)O)C1OC(n2cc(CO)c(=O)[nH]c2=O)C(O)C1O (stereo not drawn) [polyoxin B],> 100,> 100,> 100,> 100,> 100,> 100,> 100,> 100,> 100,> 100,> 100,> 100,–,–,> 100,> 100,> 100,> 100,> 100,–,–
C[C@@H]1[C@H](O)[C@@H](C)/C=C/C=C/CC/C=C/C=C/C=C/C=C/C(O[C@H]2O[C@H](C)[C@@H](O)[C@H](N)[C@@H]2O)CC2O[C@](O)(CC(O)C(O)CCC(O)CC(O)CC(O)CC(=O)O[C@H]1C)CC(O)C2C(=O)O (stereo partly drawn) [nystatin],–,–,–,–,–,0.8,–,–,–,–,6,–,–,–,–,–,–,–,–,6,MIC [1]: 12 µg/mL; MIC ([2]; Fusarium roseum): 6 µg/mL; MIC [4]: 100 µg/mL; MIC [5]: 100 µg/mL; MIC [7]: 1.5 µg/mL; MIC [8]: 100 µg/mL; MIC [9]: 12 µg/mL; MIC [10]: 50 µg/mL; MIC [12]: 1.5 µg/mL; MIC [13]: 1.5 µg/mL; MIC [14]: 3 µg/mL; MIC [15]: 25 µg/mL; MIC [16]: 3 µg/mL; MIC [17]: 3 µg/mL; LD50 [18]: ~ 200 mg/kg; MIC [19]: 1.5 µg/mL; MIC [20]: 12 µg/mL
C[C@@H]1[C@H](O)[C@@H](C)/C=C/C=C/C=C/C=C/C=C/C=C/C=C/[C@H](O[C@@H]2O[C@H](C)[C@@H](O)[C@H](N)[C@@H]2O)C[C@@H]2O[C@](O)(C[C@@H](O)C[C@@H](O)[C@H](O)CC[C@@H](O)C[C@@H](O)CC(=O)O[C@H]1C)C[C@H](O)[C@H]2C(=O)O [amphotericin B],–,6,–,–,–,0.2,–,–,–,–,0.4,–,1.5,0.8,–,–,–,–,–,25,"MIC ([1]; Cercospora): 100 µg/mL; MIC ([4]; Phytophthora capsici): 25 µg/mL; MIC ([5]; Phytophthora nicotianae): 50 µg/mL; MIC ([7]; Rhizoctonia solani): 3 µg/mL; MIC ([8]; Rhizopus): 100 µg/mL; MIC [9]: 1.5 µg/mL; MIC ([10]; Cladophialophora carrionii, ATCC1624): 50 µg/mL; MIC [12]: 0.4 µg/mL; MIC ([15]; Sporothrix, ATCC10212): 50 µg/mL; MIC ([16]; Trichophyton mentagrophytes, ATCC9533): 0.8 µg/mL; MIC ([17]; Trichophyton): 0.8 µg/mL; LD50 [18]: 88 mg/kg; MIC ([19]; Botrytis cinerea): 3 µg/mL; MIC ([20]; Fusarium oxysporum): 50 µg/mL"
C[C@@H]1C[C@@H]([C@H](O)CC2CC(=O)NC(=O)C2)C(=O)[C@@H](C)C1 [cycloheximide],–,25,–,0.8,–,–,12,–,–,–,–,–,–,–,–,–,–,–,–,–,"MIC ([1]; Cercospora, read-out: MIC): 100 µg/mL; MIC ([3]; read-out: MIC): 25 µg/mL; MIC ([5]; Phytophthora nicotianae, read-out: MIC): 1.5 µg/mL; MIC ([6]; read-out: MIC): 3 µg/mL; MIC ([8]; Rhizopus, read-out: MIC): > 100 µg/mL; MIC ([9]; read-out: MIC): 50 µg/mL; MIC ([10]; Cladophialophora carrionii, ATCC1624, read-out: MIC): > 100 µg/mL; MIC ([11]; ATCC34020, read-out: MIC): > 100 µg/mL; MIC ([12]; read-out: MIC): > 100 µg/mL; MIC ([13]; Microsporum canis, ATCC11622, read-out: MIC): > 100 µg/mL; MIC ([14]; Nannizzia gypsea, read-out: MIC): > 100 µg/mL; MIC ([15]; Sporothrix, ATCC10212, read-out: MIC): > 100 µg/mL; MIC ([16]; Trichophyton mentagrophytes, ATCC9533, read-out: MIC): > 100 µg/mL; MIC ([17]; Trichophyton, read-out: MIC): > 100 µg/mL"

# — US5155041A, “Culture of Bacillus subtilis” (Korea Research Institute of Chemical Technology, priority 1990, dated 1992)
